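Five concentrations, 48 hours, 96-well plates. At the GI50, growth is halved.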 Active and inactive are the calls of the source. Rule as the data show it: active = GI50 up to about 1.1 µM and inactive = higher.
Columns and labels:
Experiment in all cases: growth of human tumour cells (NCI), 48 h
[1] = system: M19-MEL
[2] = system: EKVX
[3] = system: NCI-H226
[4] = system: OVCAR-5
[5] = system: A498
[6] = system: SF-295
[7] = system: SK-OV-3
[8] = system: LXFL 529
[9] = system: TK-10
[10] = system: SF-539
[11] = system: SNB-19
[12] = system: OVCAR-4
[13] = system: RPMI-8226
[14] = system: M14
[15] = system: OVCAR-8
[16] = system: HL-60
[17] = system: NCI-H23
[18] = system: HCT-116
[19] = system: OVCAR-3
[20] = system: NCI-H460
[21] = system: DMS-273
[22] = system: KM12
[23] = system: A549
[24] = system: K562
[25] = system: HOP-18
[26] = system: COLO 205
[27] = system: HCT-15
[28] = system: IGROV-1
[29] = system: SNB-78
[30] = system: Malme-3M
[31] = system: UACC-62
[32] = system: HOP-92
[33] = system: XF498
[34] = system: DLD-1
[35] = system: CCRF-CEM
[36] = system: RXF 393
[37] = system: HCC 2998
[38] = system: MOLT-4
[39] = system: HOP-62
[40] = system: HT-29
[41] = system: SW-620
[42] = system: UACC-257
[43] = system: U-251
[44] = system: NCI-H522
[45] = system: SN12C
[46] = system: SNB-75
[47] = system: CAKI-1
[48] = system: LOX IMVI
[49] = system: UO-31
[50] = system: SF-268
[51] = system: 786-0
[52] = system: KM-20L2
[53] = system: SK-MEL-5
[54] = system: SK-MEL-2
[55] = system: ACHN
[56] = system: SK-MEL-28
[57] = system: DMS-114
[58] = system: SR

## Fc1cccc(F)c1C1SCc2nc3ccccc3n21 (stereo unspecified) [THIAZOLOBENZIMIDAZOLE]
[1]
  GI50: 44.9 µM (inactive)
[2]
  GI50: 64.6 µM (inactive)
[3]
  GI50: 97.5 µM (inactive)
[4]
  GI50: 85.9 µM (inactive)
[5]
  GI50: > 100 µM (inactive)
[6]
  GI50: 39.8 µM (inactive)
[7]
  GI50: > 100 µM (inactive)
[8]
  GI50: 60.4 µM (inactive)
[9]
  GI50: 61.4 µM (inactive)
[10]
  GI50: > 100 µM (inactive)
[11]
  GI50: > 100 µM (inactive)
[12]
  GI50: > 100 µM (inactive)
[13]
  GI50: 35.2 µM (inactive)
[14]
  GI50: > 100 µM (inactive)
[15]
  GI50: 77.8 µM (inactive)
[16]
  GI50: 25.4 µM (inactive)
[17]
  GI50: 45.5 µM (inactive)
[18]
  GI50: 65.2 µM (inactive)
[19]
  GI50: 47.4 µM (inactive)
[20]
  GI50: 47.3 µM (inactive)
[21]
  GI50: 50.2 µM (inactive)
[22]
  GI50: > 100 µM (inactive)
[23]
  GI50: > 100 µM (inactive)
[24]
  GI50: 36.5 µM (inactive)
[25]
  GI50: 53.6 µM (inactive)
[26]
  GI50: > 100 µM (inactive)
[27]
  GI50: 54.5 µM
[28]
  GI50: 80.9 µM (inactive)
[29]
  GI50: 63.5 µM (inactive)
[30]
  GI50: 55.5 µM (inactive)
[31]
  GI50: 47 µM (inactive)
[32]
  GI50: 28.5 µM (inactive)
[33]
  GI50: 52 µM (inactive)
[34]
  GI50: > 100 µM (inactive)
[35]
  GI50: 52.4 µM (inactive)
[36]
  GI50: > 100 µM (inactive)
[37]
  GI50: > 100 µM (inactive)
[38]
  GI50: 35.3 µM (inactive)
[39]
  GI50: > 100 µM (inactive)
[40]
  GI50: 62.7 µM (inactive)
[41]
  GI50: > 100 µM (inactive)
[42]
  GI50: 60.8 µM (inactive)
[43]
  GI50: > 100 µM (inactive)
[44]
  GI50: 53.7 µM (inactive)
[45]
  GI50: > 100 µM (inactive)
[46]
  GI50: > 100 µM (inactive)
[47]
  GI50: > 100 µM (inactive)
[48]
  GI50: 80.4 µM (inactive)
[49]
  GI50: 51.5 µM (inactive)
[50]
  GI50: > 100 µM (inactive)
[51]
  GI50: > 100 µM (inactive)
[52]
  GI50: > 100 µM (inactive)
[53]
  GI50: 31.5 µM (inactive)
[54]
  GI50: > 100 µM (inactive)
[55]
  GI50: > 100 µM (inactive)

## CP(=O)(CCSc1ccccc1)c1ccccc1 (stereo unspecified)
[1]
  GI50: > 100 µM (inactive)
[2]
  GI50: > 100 µM (inactive)
[3]
  GI50: > 100 µM (inactive)
[5]
  GI50: > 100 µM (inactive)
[56]
  GI50: > 100 µM (inactive)
[6]
  GI50: > 100 µM (inactive)
[7]
  GI50: > 100 µM (inactive)
[8]
  GI50: > 100 µM (inactive)
[9]
  GI50: > 100 µM (inactive)
[10]
  GI50: > 100 µM (inactive)
[11]
  GI50: > 100 µM (inactive)
[12]
  GI50: > 100 µM (inactive)
[13]
  GI50: > 100 µM (inactive)
[14]
  GI50: > 100 µM (inactive)
[15]
  GI50: > 100 µM (inactive)
[16]
  GI50: 35.6 µM (inactive)
[17]
  GI50: > 100 µM (inactive)
[18]
  GI50: > 100 µM (inactive)
[19]
  GI50: > 100 µM (inactive)
[20]
  GI50: > 100 µM (inactive)
[21]
  GI50: > 100 µM (inactive)
[23]
  GI50: > 100 µM (inactive)
[24]
  GI50: > 100 µM (inactive)
[57]
  GI50: > 100 µM (inactive)
[25]
  GI50: > 100 µM (inactive)
[26]
  GI50: > 100 µM (inactive)
[27]
  GI50: > 100 µM
[28]
  GI50: > 100 µM (inactive)
[29]
  GI50: > 100 µM (inactive)
[30]
  GI50: > 100 µM (inactive)
[31]
  GI50: > 100 µM (inactive)
[32]
  GI50: > 100 µM (inactive)
[33]
  GI50: > 100 µM (inactive)
[34]
  GI50: > 100 µM (inactive)
[35]
  GI50: > 100 µM (inactive)
[36]
  GI50: > 100 µM (inactive)
[37]
  GI50: > 100 µM (inactive)
[38]
  GI50: > 100 µM (inactive)
[39]
  GI50: > 100 µM (inactive)
[40]
  GI50: > 100 µM (inactive)
[41]
  GI50: > 100 µM (inactive)
[42]
  GI50: > 100 µM (inactive)
[43]
  GI50: > 100 µM (inactive)
[45]
  GI50: > 100 µM (inactive)
[46]
  GI50: > 100 µM (inactive)
[47]
  GI50: > 100 µM (inactive)
[48]
  GI50: > 100 µM (inactive)
[49]
  GI50: > 100 µM (inactive)
[50]
  GI50: > 100 µM (inactive)
[51]
  GI50: > 100 µM (inactive)
[58]
  GI50: > 100 µM (inactive)
[52]
  GI50: > 100 µM (inactive)
[53]
  GI50: > 100 µM (inactive)
[55]
  GI50: > 100 µM (inactive)

## CCOc1ccc(C2=C(Cl)c3cc(OC)c(OC)cc3C2Cl)cc1 (stereo unspecified)
[1]
  GI50: 45.2 µM (inactive)
[2]
  GI50: 66.7 µM (inactive)
[3]
  GI50: 30.8 µM (inactive)
[5]
  GI50: 19.8 µM (inactive)
[56]
  GI50: 87.5 µM (inactive)
[6]
  GI50: 35 µM (inactive)
[7]
  GI50: > 100 µM (inactive)
[8]
  GI50: 26.8 µM (inactive)
[9]
  GI50: 79.8 µM (inactive)
[10]
  GI50: 29.8 µM (inactive)
[11]
  GI50: > 100 µM (inactive)
[13]
  GI50: 21.3 µM (inactive)
[14]
  GI50: 35.8 µM (inactive)
[15]
  GI50: 36.4 µM (inactive)
[16]
  GI50: 13.4 µM (inactive)
[17]
  GI50: 44.4 µM (inactive)
[19]
  GI50: 59 µM (inactive)
[20]
  GI50: 29.3 µM (inactive)
[21]
  GI50: 37.9 µM (inactive)
[24]
  GI50: > 10 µM (inactive)
[57]
  GI50: 18.6 µM (inactive)
[25]
  GI50: 42.8 µM (inactive)
[26]
  GI50: 63.5 µM (inactive)
[27]
  GI50: 27.1 µM
[28]
  GI50: 72.4 µM (inactive)
[29]
  GI50: 27.4 µM (inactive)
[30]
  GI50: 33.8 µM (inactive)
[31]
  GI50: 26.2 µM (inactive)
[32]
  GI50: 25.4 µM (inactive)
[33]
  GI50: 19.6 µM (inactive)
[34]
  GI50: 37.6 µM (inactive)
[35]
  GI50: 25.2 µM (inactive)
[38]
  GI50: 19.5 µM (inactive)
[40]
  GI50: 32.1 µM (inactive)
[41]
  GI50: 29.2 µM (inactive)
[43]
  GI50: 18.2 µM (inactive)
[44]
  GI50: 17.2 µM (inactive)
[45]
  GI50: 42.4 µM (inactive)
[46]
  GI50: 44.1 µM (inactive)
[47]
  GI50: 46.1 µM (inactive)
[48]
  GI50: 19.5 µM (inactive)
[49]
  GI50: 45 µM (inactive)
[50]
  GI50: 59.6 µM (inactive)
[52]
  GI50: 38.8 µM (inactive)
[53]
  GI50: 18.3 µM (inactive)
[54]
  GI50: 23.1 µM (inactive)
[55]
  GI50: 31.6 µM (inactive)

— ChEMBL document CHEMBL1201862, “PubChem BioAssay data set” (2004)
